Results taken from patent US20070212707A1, “CELL CYCLE MARKERS” (GE HEALTHCARE UK LIMITED, priority 2004, published 2007).
“Also recorded” adds a separate entry of the source.

Assays:
[1] = tested on: U2OS cells transiently expressing GFP-HDHB; assay: DNA damage response assay: GFP-HDHB nuclear focus formation; type: cell-based, human; conditions: 20 μM etoposide, 10 μM camptothecin or 1 μM mitomycin C, 20 h, DMSO control, Triton X-100 extraction
Description: U2OS cells (80-90% confluent) were transfected with pGFP-HDHB according to the manufacturer's protocol (Lipofectamine 2000, Invitrogen). […] After 20 h, cells were extracted with Triton X-100 buffer and then fixed for immunofluorescence as described above. Distinctive GFP-HDHB nuclear foci were counted in more than 100 cells in each independent assay.
Moreover, DNA damage induces nuclear foci that are thought to contain damage-sensing and -processing proteins (Nelms et al., Science, (1998) 280, 590-592; van den Bosch et al. EMBO Rep., (2003), 4, 844-849).

[2] = tested on: CRM1-mediated nuclear export; assay: Nuclear export block: subcellular localization of GFP-HDHB and FLAG-HDHB with or without LMB; type: cell-based, human; conditions: asynchronous, G1 and S phase U2OS cells; 10 ng/ml LMB with 10 μM cycloheximide, 3 h
Description: In experiments to block nuclear protein export, cells were cultured for 3 h in DMEM containing 10 ng/ml of leptomycin B (LMB) (gift from Dr. M. Yoshida) and 10 μM cycloheximide (Calbiochem, San Diego, Calif.) to prevent new protein synthesis. Cells plated on glass coverslips were microinjected as described (Herbig et al., 1999) except that plasmid DNA rather than protein was injected.
To assess whether the putative NES in HDHB was functional, we mutated Val/Leu and Leu/Leu of the NES motif to alanine to create NES mutants 1 and 2 (FIG. 6A). GFP-HDHB and GFP-βGal-PSLD harboring these NES mutations were transiently expressed in either asynchronous or synchronized U2OS cells.

Structure (SMILES) | number of large GFP-HDHB nuclear foci per cell compared to the control [1] | subcellular localization of GFP-HDHB and FLAG-HDHB fusion proteins in the presence of LMB [2]
CC[C@@]1(O)C(=O)OCc2c1cc1n(c2=O)Cc2cc3ccccc3nc2-1 [camptothecin] | more than doubled; also recorded: induced many more HDHB nuclear foci | –
CCC(=C/[C@H](C)C/C=C/C(C)=C/[C@@H](C)C(=O)[C@@H](C)[C@H](O)[C@@H](C)C/C(C)=C/C(=O)O)/C=C/[C@@H]1OC(=O)C=C[C@@H]1C [LMB, leptomycin B] | – | both fusion proteins accumulated in the nucleus independently of the cell cycle
CO[C@@]12[C@H](COC(N)=O)C3=C(C(=O)C(C)=C(N)C3=O)N1C[C@@H]1N[C@@H]12 [Mitomycin C, mitomycin C] | little effect | –
